Data on 13 molecules can be found in ChEMBL document CHEMBL5370661, “Development of Fluorescent AF64394 Analogues Enables Real-Time Binding Studies for the Orphan Class A GPCR GPR3” (J Med Chem, 2023).

Data set [1] deals with T1, G-protein coupled receptor 3 (Homo sapiens, UniProt P46089). The experiment in a line: Inverse agonist activity at N-terminal 3xHA/Nluc-tagged full-length wild-type human GPR3 expressed in HEK293A cells co-expressing Fluc-tagged CRE assessed as reduction in CRE gene expression at 10 uM incubated for 24 hrs by luciferase based assay. The data set is classed as functional, cell-based. The following applies: HEK293-A, filed as inverse agonist.

Data set [2] concerns G-protein coupled receptor 3 (Homo sapiens), P46089 [V186W,V187W,Y188W]. The experiment in a line: Binding affinity to Nluc-tagged GPR3 V186W/V187W/Y188W mutant (unknown origin) expressed in HEK293A cells assessed as decrease in cAMP level by biosensor based FRET assay. The class given is cell-based. The settings on record: HEK293-A. For orientation: Changes in cAMP serve as a functional read-out for many G protein-coupled receptors.

Data set [3] concerns the target T1, G-protein coupled receptor 3. The experiment in a line: Binding affinity to N-terminal 3xHA/Nluc-tagged full-length wild-type human GPR3 expressed in HEK293A cells using vivazine as substrate by time-course saturation based NanoBRET assay. The following applies: HEK293-A, time 180.0 min, TDE = time-dependent effect. The data set is classed as cell-based. (BRET reads energy transfer from a luciferase to a nearby fluorophore.)

Data set [4] has the same target. The experiment in a line: Binding affinity to N-terminal 3xHA/Nluc-tagged full-length wild-type human GPR3 expressed in HEK293A cells using vivazine as substrate measured for 180 mins by time-course saturation based NanoBRET assay. The data set is classed as cell-based. The settings on record: for Activity: HEK293-A.
For data set [5] the target is unchanged. Briefly: Binding affinity to N-terminal 3xHA/Nluc-tagged full-length wild-type human GPR3 expressed in HEK293A cells using vivazine as substrate at <=30 uM measured for 180 mins by time-course saturation based NanoBRET assay. The data set is classed as cell-based. The following applies: HEK293-A.
Data set [6] shares this target. Briefly: Binding affinity to N-terminal 3xHA/Nluc-tagged full-length wild-type human GPR3 expressed in HEK293A cells using vivazine as substrate at <10 uM measured for 180 mins by time-course saturation based NanoBRET assay. The class given is cell-based. The settings on record: HEK293-A.
The target is the same in data set [7]. Briefly: Total binding affinity to N-terminal 3xHA/Nluc-tagged full-length wild-type human GPR3 expressed in HEK293A cells using furimazine as substrate measured for 3 hrs by NanoBRET assay. The class given is cell-based, HEK293-A.
Data set [8] shares this target. Briefly: Binding affinity to N-terminal 3xHA/Nluc-tagged full-length wild-type human GPR3 expressed in HEK293A cells assessed as increase in BRET ratio incubated for 180 mins by NanoBRET assay. The data set is classed as cell-based. The settings on record: HEK293-A.
A short description of data set [9]: Chemical stability of compound in DMSO assessed as compound degradation incubated for 104 days by RP-HPLC analysis. The data set is classed as physicochemical. The following applies: 2496 h; time 104 day.
The target in data set [10] is T1, G-protein coupled receptor 3. The experiment in a line: Binding affinity to N-terminal 3xHA/Nluc-tagged full-length wild-type human GPR3 expressed in HEK293A cells using vivazine as substrate at 20 to 30 uM measured for 180 mins by time-course saturation based NanoBRET assay. The data set is classed as cell-based. The settings on record: HEK293-A, dose 20-30 µM.

Data set [11] shares this target. The experiment in a line: Specific binding affinity to N-terminal 3xHA/Nluc-tagged full-length wild-type human GPR3 expressed in HEK293A cells using furimazine as substrate measured for 3 hrs by NanoBRET assay. The data set is classed as cell-based, HEK293-A.
The nature of data set [12]: Specific binding affinity to N-terminal 3xHA/Nluc-tagged full-length wild-type human GPR12 expressed in HEK293A cells using furimazine as substrate measured for 3 hrs by NanoBRET assay. The data set is classed as cell-based. The settings on record: hek293-a.
Data set [13] addresses T2, G-protein coupled receptor 6 (Homo sapiens, UniProt P46095). Briefly: Specific binding affinity to full-length wild-type human brain GPR6 expressed in HEK293A cells using furimazine as substrate measured for 3 hrs by NanoBRET assay. The class given is cell-based, HEK293-A.
Data set [14] concerns the target T1, G-protein coupled receptor 3. Briefly: Competitive total binding affinity to N-terminal 3xHA/Nluc-tagged full-length wild-type human GPR3 expressed in HEK293A cells using furimazine as substrate at 1 uM measured for 3 hrs in presence of AF64394 by NanoBRET assay. The class given is cell-based, HEK293-A.
Data set [15] addresses T2, G-protein coupled receptor 6. Briefly: Competitive total binding affinity to full-length wild-type human brain GPR6 expressed in HEK293A cells using furimazine as substrate at 1 uM measured for 3 hrs in presence of CVN424 by NanoBRET assay. The class given is cell-based, HEK293-A.
Data set [16] addresses T1, G-protein coupled receptor 3. The experiment in a line: Modulation of N-terminal 3xHA/Nluc-tagged full-length wild-type human GPR3 expressed in HEK293A cells using furimazine as substrate at 1 uM measured for 3 hrs in presence of DPI by NanoBRET assay. The data set is classed as cell-based, HEK293-A.
The target is the same in data set [17]. Briefly: Binding affinity to N-terminal 3xHA/Nluc-tagged full-length wild-type human GPR3 expressed in HEK293A cells using vivazine as substrate assessed as increase in BRET ratio by time-course saturation based NanoBRET assay. The following applies: HEK293-A, filed as modulator. The data set is classed as cell-based.
The test system of data set [18] is HEK293-A. The experiment in a line: Downregulation of CRE gene activity in HEK293-A cells expressing GPR6 incubated for 24 hrs by luciferase based assay. The class given is functional, cell-based. The following applies: Homo sapiens.
The test system of data set [19] is HEK293-A. Briefly: Downregulation of CRE gene activity in HEK293-A cells expressing GPR12 incubated for 24 hrs by luciferase based assay. The data set is classed as functional, cell-based. The following applies: Homo sapiens.
In data set [20] the test system is G-protein coupled receptor 3 (Homo sapiens), P46089 [Y188W]. Briefly: Binding affinity to Nluc-tagged GPR3 Y188W mutant (unknown origin) expressed in HEK293A cells assessed as decrease in cAMP level by biosensor based FRET assay. The settings on record: HEK293-A, filed as modulator. The class given is cell-based.
The subject of data set [21] is G-protein coupled receptor 3 (Homo sapiens), P46089 [V187W,Y188W]. Briefly: Binding affinity to Nluc-tagged GPR3 V187W/Y188W mutant (unknown origin) expressed in HEK293A cells assessed as decrease in cAMP level by biosensor based FRET assay. The following applies: HEK293-A, filed as modulator. The class given is cell-based.
In data set [22] the test system is HEK293-A. Briefly: Binding affinity to Nluc-tagged GPR3 T279A/Y280A mutant (unknown origin) expressed in HEK293A cells assessed as decrease in cAMP level by biosensor based FRET assay. The settings on record: Homo sapiens, filed as modulator. The data set is classed as cell-based.
Data set [23] can be described thus: Chemical stability of compound in aqueous solution assessed as compound degradation incubated for 104 days by RP-HPLC analysis. The class given is physicochemical. The following applies: buffer, 2496 h; time 104 day.

SMILES strings stand for the structures. Active and inactive are the calls of the source. The rule behind the calls is not given here.

T1 sequence (P46089 whole entry): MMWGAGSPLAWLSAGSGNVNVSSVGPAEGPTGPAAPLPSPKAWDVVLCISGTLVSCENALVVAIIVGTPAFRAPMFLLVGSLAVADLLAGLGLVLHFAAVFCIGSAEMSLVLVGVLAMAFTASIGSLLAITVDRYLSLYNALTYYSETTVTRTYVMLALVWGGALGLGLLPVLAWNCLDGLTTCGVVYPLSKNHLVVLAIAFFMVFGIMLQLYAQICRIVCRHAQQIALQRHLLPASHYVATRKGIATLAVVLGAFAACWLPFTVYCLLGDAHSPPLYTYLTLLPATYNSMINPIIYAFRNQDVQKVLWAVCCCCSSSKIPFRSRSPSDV
T2 sequence (P46095 whole entry): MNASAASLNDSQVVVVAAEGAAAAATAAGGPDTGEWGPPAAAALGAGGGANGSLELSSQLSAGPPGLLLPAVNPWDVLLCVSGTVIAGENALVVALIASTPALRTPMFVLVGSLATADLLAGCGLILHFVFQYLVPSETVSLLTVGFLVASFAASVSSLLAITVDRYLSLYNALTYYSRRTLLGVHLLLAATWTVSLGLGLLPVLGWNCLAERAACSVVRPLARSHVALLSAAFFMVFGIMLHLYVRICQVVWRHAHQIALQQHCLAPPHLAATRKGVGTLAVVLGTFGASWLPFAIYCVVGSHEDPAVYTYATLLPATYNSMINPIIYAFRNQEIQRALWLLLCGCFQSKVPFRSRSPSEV
Chain of G-protein coupled receptor 3 (Homo sapiens), P46089 [V186W,V187W,Y188W] (P46089 whole entry V186W/V187W/Y188W): as the sequence (P46089 whole entry) above, with V186W, V187W, Y188W counted along it
Chain of G-protein coupled receptor 3 (Homo sapiens), P46089 [V187W,Y188W] (P46089 whole entry V187W/Y188W): as the sequence (P46089 whole entry) above, with V187W, Y188W counted along it
Chain of G-protein coupled receptor 3 (Homo sapiens), P46089 [Y188W] (P46089 whole entry Y188W): as the sequence (P46089 whole entry) above, with Y188W counted along it

For `CC(C)Oc1cc(Cl)ccc1CNc1cc(-c2cc(F)ccc2Cl)nc2ncnn12`, in data set [1], the outcome was Active. The outcome in [2] was inactive.
On to `CC(C)Oc1cc(Cl)ccc1CNc1cc(-c2cccc(OCCOCCOCCOCCNC(=O)c3ccc(-c4c5ccc(N(C)C)cc5[o+]c5cc(N(C)C)ccc45)c(C(=O)[O-])c3)c2)nc2ncnn12`, for which the Activity entry in [3] is “Tde”; in data set [4], “Dose-Dependent Effect”. In addition, the outcome in data set [5] was Active. In addition, the result in data set [6] was inactive. For the same molecule, the EC50 (commonly the concentration needed to bring the measured effect to its halfway point) in data set [7] is over 10000 nM.
Regarding `COCC[N+]1=C(/C=C/C=C2/N(CCCCCC(=O)NCCOCCOCCOCCOc3cccc(-c4cc(NCc5ccc(Cl)cc5OC(C)C)n5ncnc5n4)c3)c3ccc(S(=O)(=O)O)cc3C2(C)CCCS(=O)(=O)O)C(C)(CCCS(=O)(=O)O)c2cc(S(=O)(=O)[O-])ccc21` (configuration not stated), the outcome in data set [4] was inactive. The half-maximal effective concentration (EC50) in [7] was over 31600 nM.
Consider `CN(C)c1ccc2c(-c3ccc(C(=O)NCCCC(=O)Nc4ccc(CCN5CN(c6ccccc6)C6(CCN(CCCC(=O)c7ccc(F)cc7)CC6)C5=O)cc4)cc3C(=O)[O-])c3ccc(N(C)C)cc3[o+]c2c1`, for which the result in [8] was inactive.
With `CC(C)Oc1cc(Cl)ccc1CNc1cc(-c2cccc(OCCCCCCNC(=O)c3ccc(-c4c5ccc(N(C)C)cc5[o+]c5cc(N(C)C)ccc45)c(C(=O)[O-])c3)c2)nc2ncnn12`, the Stability entry in [9] was “Stable”. Moreover, the Activity result in [3] is “Tde”; in data set [4], “Dose-Dependent Effect”. The outcome in data set [5] was Active. For the same molecule, in data set [7], a half-maximal response (EC50) required 4470 nM.
For the molecule `COCC[N+]1=C(/C=C/C=C2/N(CCCCCC(=O)NCCOCCOCCOCCOc3ccc(-c4cc(NCc5ccc(Cl)cc5OC(C)C)n5ncnc5n4)cc3)c3ccc(S(=O)(=O)O)cc3C2(C)CCCS(=O)(=O)O)C(C)(CCCS(=O)(=O)O)c2cc(S(=O)(=O)[O-])ccc21` (configuration not stated), in data set [4], the result was inactive. This molecule also gave an EC50 in data set [7] of over 31600 nM.
As to `COCC[N+]1=C(/C=C/C=C2/N(CCCCCC(=O)NCCOCCOCCOCCOCCOCCOc3ccccc3-c3cc(NCc4ccc(Cl)cc4OC(C)C)n4ncnc4n3)c3ccc(S(=O)(=O)O)cc3C2(C)CCCS(=O)(=O)O)C(C)(CCCS(=O)(=O)O)c2cc(S(=O)(=O)[O-])ccc21` (configuration not stated), in data set [4], the result was inactive. For the same molecule, the EC50 in data set [7] was over 31600 nM.
For the molecule `CC(C)Oc1cc(Cl)ccc1CNc1cc(-c2ccccc2OCCOCCOCCOCCOCCOCCNC(=O)c2ccc(-c3c4ccc(N(C)C)cc4[o+]c4cc(N(C)C)ccc34)c(C(=O)[O-])c2)nc2ncnn12`, the Activity result is “Tde” in data set [3] and “Dose-Dependent Effect” in [4]. In addition, the result in data set [5] was Active. Also, the outcome in data set [10] was inactive. In addition, it took 4470 nM to reach a half-maximal effect in [7] (EC50).
For the molecule `CC(C)Oc1cc(Cl)ccc1CNc1cc(-c2ccccc2OCCCCCCNC(=O)c2ccc(-c3c4ccc(N(C)C)cc4[o+]c4cc(N(C)C)ccc34)c(C(=O)[O-])c2)nc2ncnn12`, the equilibrium dissociation constant (Kd) (in general, the concentration at which binding is half-saturated) was 302 nM in data set [11], 102 nM in [4] and 66.1 nM in data set [13]. For the same molecule, the Activity entry in data set [3] (filed as modulator) was “Tde”; in data set [4] (filed as modulator) it was “Dose-Dependent Effect”; in data set [17], “Dose-Dependent Effect”. Further, the result (in data set [5] (filed as modulator); in data set [1]; with HEK293-A [18]; in the data set on HEK293-A [19]; in data set [2] (filed as modulator); in data set [20]) was Active. Moreover, the outcome (in data set [21]; with HEK293-A [22]) was Active. In addition, the results for the EC50 in data set [7] and in data set [16] were 891 nM and 1410 nM, respectively. Besides, the negative-log Kd (pKd) (usually −log10 of the Kd, conventionally taken in molar units) in data set [12] worked out at 7.12. Further, the 50% inhibitory concentration (IC50) (usually the concentration at which inhibition is half-maximal) in data set [14] was 1260 nM; in data set [15], 214 nM. In addition, the Ki (usually the dissociation constant of the complex between target and ligand, obtained from inhibition or displacement) was 295 nM in [14] and 13.2 nM in [15].
Consider `CC(C)Oc1cc(Cl)ccc1CNc1cc(-c2ccc(OCCOCCOCCOCCNC(=O)c3ccc(-c4c5ccc(N(C)C)cc5[o+]c5cc(N(C)C)ccc45)c(C(=O)[O-])c3)cc2)nc2ncnn12`, for which the Activity entry is “Tde” in data set [3] and “Dose-Dependent Effect” in data set [4]. The outcome in data set [5] was Active. For the same molecule, the outcome in [6] was inactive. The molecule also showed an EC50 in [7] of over 10000 nM.
Regarding `CC(C)Oc1cc(Cl)ccc1CNc1cc(-c2ccccc2OCCOCCOCCOCCNC(=O)CCCCCN2/C(=C/C=C/C3=[N+](CCOO)c4ccc(S(=O)(=O)O)cc4C3(C)CCCS(=O)(=O)[O-])C(C)(CCCS(=O)(=O)O)c3cc(S(=O)(=O)O)ccc32)nc2ncnn12` (configuration not stated), the result in [4] was inactive. Also, the 50% effective concentration (EC50) in data set [7] is over 31600 nM.
With `CC(C)Oc1cc(Cl)ccc1CNc1cc(-c2ccccc2OCCOCCOCCOCCNC(=O)c2ccc(-c3c4ccc(N(C)C)cc4[o+]c4cc(N(C)C)ccc34)c(C(=O)[O-])c2)nc2ncnn12`, the Stability result in data set [23] is reported as “Stable”. The Activity entry in data set [3] is “Tde”; in data set [4] it was “Dose-Dependent Effect”. In data set [5], the result was Active. The result in data set [10] was inactive. Further, the response in data set [7] was half-maximal at 3390 nM (EC50).
Regarding `CC(C)Oc1cc(Cl)ccc1CNc1cc(-c2ccc(OCCCCCCNC(=O)c3ccc(-c4c5ccc(N(C)C)cc5[o+]c5cc(N(C)C)ccc45)c(C(=O)[O-])c3)cc2)nc2ncnn12`, the Activity result was “Tde” in data set [3] and “Dose-Dependent Effect” in data set [4]. The outcome in [5] was Active. Moreover, it took 11200 nM to reach a half-maximal effect in data set [7] (EC50).
